The source of these data is ChEMBL document CHEMBL5370588, “Unraveling the unexpected aggregation behavior of Pyrazole-Based compounds Targeting Mycobacterium tuberculosis UDP-Galactopyranose mutase” (Bioorg Med Chem, 2023).

In data set [1] the target is T1, UDP-galactopyranose mutase (Mycobacterium tuberculosis, UniProt P9WIQ1). Put plainly: Inhibition of His6-tagged Mycobacterium tuberculosis reduced UDP-galactopyranose mutase expressed in Escherichia coli BL21 assessed as reduction in UDPGalf production using UDPGalp as substrate by HPLC analysis.
The target of data set [2] is T1, UDP-galactopyranose mutase. Put plainly: Inhibition of His6-tagged Mycobacterium tuberculosis reduced UDP-galactopyranose mutase expressed in Escherichia coli BL21 assessed as reduction in UDPGalf production using UDPGalp as substrate in presence of TritonX100 by HPLC analysis.
Data set [3] concerns the target UDP-galactopyranose mutase (Mycobacterium tuberculosis) (UniProt P9WIQ1). Put plainly: Binding affinity to His6-tagged Mycobacterium tuberculosis UDP-galactopyranose mutase expressed in Escherichia coli BL21 assessed as change melting temperature at 20 uM in presence of Sypro Orange by thermal shift assay.
Data set [4] in a line: Aggregation property of compound in PBS at pH 7 assessed as critical aggregation concentration by DLS assay. It counts as physicochemical. As to conditions: buffer.
A short description of data set [5]: Aggregation property of compound in PBS at pH 7 at 80 uM by DLS assay. It counts as physicochemical. As to conditions: buffer, pH 7, 80 µM.
Data set [6] has as its target UDP-galactopyranose mutase (Mycobacterium tuberculosis) (UniProt P9WIQ1). Put plainly: Binding affinity to His6-tagged Mycobacterium tuberculosis reduced UDP-galactopyranose mutase expressed in Escherichia coli BL21 assessed as increase in corrected fluorescence intensity at 100 to 1000 uM in presence of ANS by fluorescence-based binding assay. Conditions: dose 100-1000 µM.

For data set [7] the target is unchanged. Put plainly: Binding affinity to His6-tagged Mycobacterium tuberculosis reduced UDP-galactopyranose mutase expressed in Escherichia coli BL21 assessed as increase in corrected fluorescence intensity using UDP-Galp as substrate at 100 to 1000 uM in presence of ANS by fluorescence-based binding assay. As to conditions: dose 100-1000 µM.
Data set [8] shares this target. Put plainly: Binding affinity to His6-tagged Mycobacterium tuberculosis UDP-galactopyranose mutase expressed in Escherichia coli BL21 assessed as change melting temperature up to 600 uM in presence of Sypro Orange by thermal shift assay.
For data set [9] the target is unchanged. Put plainly: Binding affinity to His6-tagged Mycobacterium tuberculosis UDP-galactopyranose mutase expressed in Escherichia coli BL21 assessed as decrease in melting temperature at 800 to 1000 uM in presence of Sypro Orange by thermal shift assay. Conditions: dose 800-1000 µM.
Data set [10] has the same target. Put plainly: Binding affinity to His6-tagged Mycobacterium tuberculosis UDP-galactopyranose mutase expressed in Escherichia coli BL21 assessed as increase in melting temperature using UDP-Galp as substrate at < 100 uM in presence of Sypro Orange by thermal shift assay.
For data set [11] the target is unchanged. Put plainly: Binding affinity to His6-tagged Mycobacterium tuberculosis UDP-galactopyranose mutase expressed in Escherichia coli BL21 assessed as decrease in melting temperature using UDP-Galp as substrate at 100 to 400 uM in presence of Sypro Orange by thermal shift assay. As to conditions: dose 100-400 µM.
Data set [12] shares this target. Put plainly: Binding affinity to His6-tagged Mycobacterium tuberculosis UDP-galactopyranose mutase expressed in Escherichia coli BL21 assessed as increase in melting temperature using UDP-Galp as substrate at 600 to 800 uM in presence of Sypro Orange by thermal shift assay. Conditions: dose 600-800 µM.
Data set [13] has as its target T1, UDP-galactopyranose mutase. Put plainly: Inhibition of Mycobacterium tuberculosis UDP-galactopyranose mutase expressed in Escherichia coli BL21 using […] as substrate by Dixon plot analysis.
Data set [14] concerns the target T1, UDP-galactopyranose mutase. Put plainly: Inhibition of Mycobacterium tuberculosis UDP-galactopyranose mutase expressed in Escherichia coli BL21 using […] as substrate by cornish-bowden plot analysis.
Data set [15] concerns the target T1, UDP-galactopyranose mutase. Put plainly: Inhibition of His6-tagged Mycobacterium tuberculosis UDP-galactopyranose mutase expressed in Escherichia coli BL21 using […] as substrate by Dixon plot analysis.

SMILES strings stand for the structures. Calls of active or inactive are those of the source. The calls are words filed in the database; no cut-off is given here.

T1 sequence (P9WIQ1 whole entry): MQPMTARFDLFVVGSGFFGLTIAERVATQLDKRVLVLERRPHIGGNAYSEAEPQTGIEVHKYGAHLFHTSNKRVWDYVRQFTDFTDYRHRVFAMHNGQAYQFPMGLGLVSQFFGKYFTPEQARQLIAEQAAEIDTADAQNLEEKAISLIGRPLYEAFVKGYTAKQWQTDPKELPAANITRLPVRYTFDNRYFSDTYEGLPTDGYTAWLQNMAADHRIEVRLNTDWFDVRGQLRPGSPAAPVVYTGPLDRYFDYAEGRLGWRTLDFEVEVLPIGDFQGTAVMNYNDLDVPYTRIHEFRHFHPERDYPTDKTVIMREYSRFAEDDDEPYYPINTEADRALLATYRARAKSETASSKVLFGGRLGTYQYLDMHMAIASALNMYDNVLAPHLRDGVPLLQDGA
Sequence of UDP-galactopyranose mutase (Mycobacterium tuberculosis) (P9WIQ1 whole entry, looked up): as the sequence (P9WIQ1 whole entry) above

As to `Cc1nn(-c2ccc(Cl)cc2)c(O)c1S(=O)(=O)c1ccc(Cl)cc1`, the IC50 was 225 µM in data set [1] and 4340 µM in data set [2].

`O=C(CCc1cn(-c2ccc(Cl)cc2)nn1)Oc1ccc(Cl)cc1`: the IC50 in data set [1] came to 530 µM; in data set [2] it was 1260 µM.

As for `OC(c1ccc(Cl)cc1)c1cn(-c2ccc(Cl)cc2)nn1` (stereo not given), the results for the half-inhibitory concentration (IC50) in [1] and in data set [2] were 150 µM and 2710 µM, respectively.

With `Cc1nn(-c2ccc(Cl)cc2)c(O)c1C(=O)c1ccccc1`, the half-inhibitory concentration (IC50) in data set [1] was 610 µM; in [2], 1510 µM.

Consider `Cc1[nH]n(-c2ccc(Cl)cc2)c(=O)c1C(=O)c1ccc(Cl)cc1`, for which, in data set [3], the ΔTm was 5 °C. Also, the CAC in data set [4] was > 50 µM. Also, the outcome in [5] was Active. Further, the result in data set [6], in [7], in data set [9], in data set [10], in [11] and in [12] was Active. Besides, in [8], the outcome was inactive. The IC50 worked out at 880 µM in data set [1] and 590 µM in data set [2]. Moreover, the values for the inhibition constant Ki in data set [13] and in data set [14] were ~135 µM and ~400 µM, respectively.

In the case of `Cc1cc(OC(=O)c2ccc(S(N)(=O)=O)cc2)n(-c2ccc(Cl)cc2)n1`, the IC50 was 500 µM in [1] and 1130 µM in [2]. For the same compound, the inhibitory constant (Ki) in data set [15] was ~51 µM.
